Article doi:10.1101/2021.08.28.458030v1 (biorxiv, 2021)

What was measured:
[1] = target: T1, lactate dehydrogenase A (LDHA) (Homo sapiens, UniProt P00338); assay: NADH fluorometric LDH assay; format: biochemical
[2] = target: lactate dehydrogenase B (LDHB) (Homo sapiens, UniProt P07195); assay: NADH fluorometric LDH assay; format: biochemical
[3] = target: T1, lactate dehydrogenase A (LDHA); assay: biochemical
[4] = target: T2, CASTOR1 (Homo sapiens, UniProt Q8WTX7); assay: equilibrium dialysis MS; format: binding; conditions: 150 mM ammonium acetate pH 7.4, 4 C, metabolite pool
T2 sequence (Q8WTX7 1-329): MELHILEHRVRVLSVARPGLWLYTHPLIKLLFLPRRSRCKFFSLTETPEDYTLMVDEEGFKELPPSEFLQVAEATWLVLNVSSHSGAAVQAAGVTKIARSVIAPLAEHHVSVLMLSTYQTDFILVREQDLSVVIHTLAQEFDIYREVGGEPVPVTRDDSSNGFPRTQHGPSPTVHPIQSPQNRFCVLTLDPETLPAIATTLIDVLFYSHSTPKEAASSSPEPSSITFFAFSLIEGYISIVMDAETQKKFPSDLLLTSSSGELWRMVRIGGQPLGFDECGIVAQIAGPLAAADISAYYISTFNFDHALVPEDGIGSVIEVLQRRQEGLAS

Sequence of lactate dehydrogenase B (LDHB) (P07195 2-334): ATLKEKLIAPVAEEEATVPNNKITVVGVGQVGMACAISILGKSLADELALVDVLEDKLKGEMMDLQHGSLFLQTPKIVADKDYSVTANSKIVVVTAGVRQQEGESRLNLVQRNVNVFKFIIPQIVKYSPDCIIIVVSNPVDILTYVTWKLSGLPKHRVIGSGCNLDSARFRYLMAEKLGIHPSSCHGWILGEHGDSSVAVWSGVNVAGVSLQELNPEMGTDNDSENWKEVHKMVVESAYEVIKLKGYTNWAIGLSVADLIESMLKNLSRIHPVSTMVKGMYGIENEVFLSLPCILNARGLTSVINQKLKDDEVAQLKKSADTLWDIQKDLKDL

| IC50 [1] | IC50 [2] | IC50 [3] | equilibrium dialysis MS (MIDAS) [4] | SMILES |
| --- | --- | --- | --- | --- |
| 5060 µM | 14900 µM |  |  | Nc1ncnc2c1ncn2[C@@H]1O[C@H](COP(=O)(O)OP(=O)(O)O)[C@@H](O)[C@H]1O [ADP] |
| 24400 µM | 51400 µM |  |  | Nc1ncnc2c1ncn2[C@@H]1O[C@H](COP(=O)(O)O)[C@@H](O)[C@H]1O [AMP] |
|  | > 100 µM |  |  | CC(=O)SCCNC(=O)CCNC(=O)[C@H](O)C(C)(C)COP(=O)(O)OP(=O)(O)OC[C@H]1O[C@@H](n2cnc3c(N)ncnc32)[C@H](O)[C@@H]1OP(=O)(O)O [C2:0-CoA] |
|  | > 100 µM |  |  | CCCC(=O)SCCNC(=O)CCNC(=O)[C@H](O)C(C)(C)COP(=O)(O)OP(=O)(O)OC[C@H]1O[C@@H](n2cnc3c(N)ncnc32)[C@H](O)[C@@H]1OP(=O)(O)O [C4:0-CoA] |
|  | > 100 µM |  |  | CCCCCCCC(=O)SCCNC(=O)CCNC(=O)[C@H](O)C(C)(C)COP(=O)(O)OP(=O)(O)OC[C@H]1O[C@@H](n2cnc3c(N)ncnc32)[C@H](O)[C@@H]1OP(=O)(O)O [C8:0-CoA] |
| > 100 µM | > 100 µM |  |  | CCCCCCCCCCCC(=O)SCCNC(=O)CCNC(=O)[C@H](O)C(C)(C)COP(=O)(O)OP(=O)(O)OC[C@H]1O[C@@H](n2cnc3c(N)ncnc32)[C@H](O)[C@@H]1OP(=O)(O)O [C12:0-CoA] |
| ~1 µM | > 100 µM | 1.54 µM |  | CCCCCCCCCCCCCCCC(=O)SCCNC(=O)CCNC(=O)[C@H](O)C(C)(C)COP(=O)(O)OP(=O)(O)OC[C@H]1O[C@@H](n2cnc3c(N)ncnc32)[C@H](O)[C@@H]1OP(=O)(O)O [C16:0-CoA] |
| ~1 µM | > 100 µM | 0.8 µM |  | CCCCCCCC/C=C\CCCCCCCC(=O)SCCNC(=O)CCNC(=O)[C@H](O)C(C)(C)COP(=O)(O)OP(=O)(O)OC[C@H]1O[C@@H](n2cnc3c(N)ncnc32)[C@H](O)[C@@H]1OP(=O)(O)O [C18:1-CoA] |
|  | > 100 µM | 1.01 µM |  | CCCCCCCCCCCCCCCCCCCC(=O)SCCNC(=O)CCNC(=O)[C@H](O)C(C)(C)COP(=O)(O)OP(=O)(O)OC[C@H]1O[C@@H](n2cnc3c(N)ncnc32)[C@H](O)[C@@H]1OP(=O)(O)O [C20:0-CoA] |
|  |  |  | CASTOR1 enriched arginine (Fig. 1C) | N=C(N)NCCC[C@H](N)C(=O)O [arginine] |
